Test results reported in EPA's ToxRefDB 2.

Key:
rabbit = details: Prenatal developmental toxicity study, new zealand white, Oral, Gavage/Intubation, dose end: 19 GD
rat [1] = details: Chronic toxicity, sprague dawley, Oral, Feed, dose end: 104 week, group: systemic
rat [2] = details: Subchronic oral toxicity in rodents, sprague dawley, Feed, dose end: 90 day, group: systemic, systemic / organ weight / liver / absolute + systemic / organ weight / liver / relative to body weight + systemic / pathology microscopic / …
rat [3] = details: Combined chronic toxicity/carcinogenicity, sprague dawley, Oral, Feed, dose end: 104 week, group: systemic
mouse [4] = details: Carcinogenicity, cd1, Oral, Feed, dose end: 104 week, group: systemic
rat [5] = details: Prenatal developmental toxicity study, sprague dawley, Oral, Gavage/Intubation, dose end: 15 GD
rat [6] = details: Multigenerational reproductive toxicity study, sprague dawley, Oral, Feed, dose end: 2 generation
dog [7] = details: Chronic toxicity, beagle, Oral, Capsule, dose end: 52 week, group: systemic
dog [8] = details: Subchronic oral toxicity in nonrodent, beagle, Capsule, dose end: 90 day, group: systemic, systemic / clinical chemistry / alkaline phosphatase (alp/alk) / alkaline phosphatase (alp/alk) + systemic / organ weight / liver / relative…
mouse [9] = details: Carcinogenicity; cd1; Oral; Feed; dose end: 104 week; group: systemic; systemic / organ weight / liver / relative to body weight + systemic / pathology gross / liver / discolored + systemic / pathology …
rat [10] = details: Prenatal developmental toxicity study, sprague dawley, Oral, Gavage/Intubation, dose end: 15 GD; remark: listed apart in the source
[11] = group: developmental, developmental / developmental malformation / bone / absent + developmental / developmental malformation / bone / fused + developmental / …
[12] = group: maternal, systemic / in life observation / food consumption / food consumption + systemic / pathology microscopic / liver / apoptosis + systemic / …
[13] = systemic / pathology microscopic / testes / atrophy
[14] = systemic / pathology microscopic / testes / atrophy + systemic / organ weight / epididymis / relative to body weight + systemic / organ …
[15] = systemic / pathology microscopic / liver / dilatation + systemic / pathology microscopic / liver / inflammation + systemic / pathology …
[16] = systemic / pathology microscopic / liver / pigmentation + systemic / pathology microscopic / liver / vacuolization
[17] = systemic / pathology microscopic / liver / pigmentation + systemic / pathology microscopic / liver / vacuolization + systemic / pathology …
[18] = group: developmental, developmental / developmental malformation / bone / incomplete ossification
[19] = group: maternal, systemic / in life observation / body weight / body weight + systemic / in life observation / clinical signs / ataxia + systemic / in life …
[20] = group: offspring, systemic / in life observation / body weight / offspring (pup) weight gain + developmental / developmental landmark / eye opening / eye …
[21] = group: parental, systemic / pathology microscopic / liver / fatty change
[22] = group: parental, systemic / pathology microscopic / liver / fatty change + systemic / in life observation / body weight / body weight + systemic / in life …
[23] = group: reproductive, reproductive / offspring survival early / litter size / litter size
[24] = systemic / clinical chemistry / glucose / glucose
[25] = group: developmental, developmental / developmental malformation / bone / delayed ossification + developmental / developmental malformation / bone / incomplete …
[26] = group: maternal, systemic / in life observation / body weight / body weight gain + systemic / in life observation / clinical signs / urogenital staining + …

What does the source list for O=[N+]([O-])c1cc(C(F)(F)F)c(Cl)c([N+](=O)[O-])c1Nc1ncc(C(F)(F)F)cc1Cl [Fluazinam]?
LEL (rabbit; [11]): 12 mg/kg/day; LOAEL (rabbit; [11]): 12 mg/kg/day; NEL (rabbit; [11]): 7 mg/kg/day; NOAEL (rabbit; [11]): 7 mg/kg/day; LEL (rabbit; group: maternal, reproductive / reproductive performance / aborted / aborted): 4 mg/kg/day; LOAEL (rabbit; [12]): 7 mg/kg/day; NEL (rabbit; [12]): 2 mg/kg/day; NOAEL (rabbit; [12]): 4 mg/kg/day; LOAEL (rat [1]; [13]): 3.9 mg/kg/day; LEL (rat [1]; [14]): 3.9 mg/kg/day; NEL (rat [1]; [14]): 1.9 mg/kg/day; NOAEL (rat [1]; [14]): 1.9 mg/kg/day; LEL (rat [2]): 38 mg/kg/day; LOAEL (rat [2]): 38 mg/kg/day; NEL (rat [2]): 3.8 mg/kg/day; NOAEL (rat [2]): 3.8 mg/kg/day; LOAEL (rat [3]; [15]): 3.8 mg/kg/day; NOAEL (rat [3]; [15]): 0.38 mg/kg/day; LEL (rat [3]; [13]): 0.04 mg/kg/day; NEL (rat [3]; [13]): < 0.04 mg/kg/day; LEL (mouse [4]; [16]): 10.7 mg/kg/day; LOAEL (mouse [4]; [16]): 10.7 mg/kg/day; NEL (mouse [4]; [17]): 1.12 mg/kg/day; NOAEL (mouse [4]; [17]): 1.12 mg/kg/day; LEL (rat [5]; [18]): 100 mg/kg/day; LOAEL (rat [5]; [18]): > 1000 mg/kg/day; NEL (rat [5]; [18]): 10 mg/kg/day; NOAEL (rat [5]; [18]): ≥ 1000 mg/kg/day; LEL (rat [5]; [19]): 1000 mg/kg/day; LOAEL (rat [5]; [19]): > 1000 mg/kg/day; NEL (rat [5]; [19]): 100 mg/kg/day; NOAEL (rat [5]; [19]): ≥ 1000 mg/kg/day; LOAEL (rat [6]; group: offspring, systemic / in life observation / body weight / offspring (pup) weight gain): 47.3 mg/kg/day; LEL (rat [6]; [20]): 47.3 mg/kg/day; NEL (rat [6]; [20]): 9.7 mg/kg/day; NOAEL (rat [6]; [20]): 9.7 mg/kg/day; LEL (rat [6]; [21]): 9.7 mg/kg/day; LOAEL (rat [6]; [21]): 9.7 mg/kg/day; NEL (rat [6]; [22]): 1.9 mg/kg/day; NOAEL (rat [6]; [22]): 1.9 mg/kg/day; LEL (rat [6]; [23]): 47.3 mg/kg/day; LOAEL (rat [6]; [23]): 47.3 mg/kg/day; NEL (rat [6]; [23]): 9.7 mg/kg/day; NOAEL (rat [6]; [23]): 9.7 mg/kg/day; LEL (dog [7]; [24]): 1 mg/kg/day; NEL (dog [7]; [24]): < 1 mg/kg/day; LOAEL (dog [7]; systemic / in life observation / clinical signs / nasal dryness + systemic / pathology microscopic / stomach / hyperplasia): 10 mg/kg/day; NOAEL (dog [7]; systemic / in life observation / clinical signs / nasal dryness + systemic / pathology microscopic / stomach / hyperplasia + systemic / …): 1 mg/kg/day; LEL (dog [8]): 100 mg/kg/day; LOAEL (dog [8]): 100 mg/kg/day; NEL (dog [8]): 10 mg/kg/day; NOAEL (dog [8]): 10 mg/kg/day; LEL (mouse [9]): 126 mg/kg/day; LOAEL (mouse [9]): 126 mg/kg/day; NEL (mouse [9]): < 126 mg/kg/day; NOAEL (mouse [9]): < 126 mg/kg/day; LOAEL (rat [10]; [25]): 250 mg/kg/day; NEL (rat [10]; [25]): 10 mg/kg/day; NOAEL (rat [10]; [25]): 50 mg/kg/day; LEL (rat [10]; group: developmental, developmental / developmental malformation / bone / full supernumerary): 50 mg/kg/day; LEL (rat [10]; [26]): 250 mg/kg/day; LOAEL (rat [10]; [26]): 250 mg/kg/day; NEL (rat [10]; [26]): 50 mg/kg/day; NOAEL (rat [10]; [26]): 50 mg/kg/day
